RP-LC retention time data for 79 compounds are collected here from the METLIN SMRT retention time set (Domingo-Almenara et al. 2019).

SMILES strings stand for the structures.

A short description of this series: gradient 5% acetonitrile 3 min, to 50% in 2 min, to 85% in 15 min, held 3 min, 100 µL/min. The settings on record: column: Zorbax Extend-C18 2.1 x 50 mm; eluents: water / acetonitrile, 0.1% formic acid. The method in brief:
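Retention times of pure standards were taken from adduct peaks that were selected by computer and manually inspected. Over 3 months, mixtures of ~100 molecules were run by HPLC–quadrupole time-of-flight mass spectrometry in positive and negative ionization mode. The Zorbax Extend-C18 column (2.1 × 50 mm, 1.8 μm) ran at 100 μL/min in water and acetonitrile, each containing 0.1% formic acid, with 40 μL dead volume and 900 μL dwell volume.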
For the compound `COc1cccc(-c2nn3c(COc4ccc(Br)cc4)nnc3s2)c1OC`, the RP-LC retention time worked out at 1130 s.
Compound `COCCCNC(=O)C1CN(C(=O)c2ccccc2)CC12CCCCC2` (centres undefined) yielded an RP-LC retention time of 571 s.
`O=C(NC(c1ccccc1)c1nnc(N2CCOCC2)o1)c1cccc(F)c1` (centres undefined) gave an RP-LC retention time of 758 s.
Consider `O=S(=O)(c1ccc(-c2cnc(C3CCC3)o2)s1)N1CCN(c2ncccn2)CC1`, for which the RP-LC retention time is 1040 s.
Turning to `O=NN(CCCl)C(=O)NCc1ccc[n+]([O-])c1`, the RP-LC retention time was 587 s.
Turning to `CN(C)c1nc(Nc2ccc3c(c2)OCO3)c2cnn(-c3ccccc3)c2n1`, the RP-LC retention time came to 1220 s.
Compound `CC(C)C(=O)N1CCc2c(c(C(=O)N3CCC(C(=O)NC4CCCCCC4)CC3)nn2C)C1` showed an RP-LC retention time of 698 s.
Turning to `COc1ccc(NC(=O)C2CCN(S(=O)(=O)c3ccc4c(c3)CCCN4C(C)=O)CC2)cc1`, the RP-LC retention time came to 780 s.
With `O=C(NCc1ccc(F)cc1F)C1CCCN(c2nc3ccsc3c(=O)n2-c2ccc(F)cc2)C1` (centres undefined), the RP-LC retention time turned out to be 885 s.
Turning to `CC(=O)N1C[C@@H]2CCCN3CCC[C@@H]([C@H]23)[C@H]1CCCC(=O)N(C)CCc1c(C)nn(C)c1C`, the RP-LC retention time stood at 556 s.
To `Cc1[nH]c2ccc(C(=O)NC3CCCC3)cc2c1C` belongs 650 s; to `Cc1nnc(NC(=O)CN2CC(c3nc(C4CC4)no3)C2)s1`, 537 s.
Under `O=C(NCc1cccnc1)C1c2ccccc2C(=O)N(C2CCCC2)C12CCCCC2` (centres undefined) stands 677 s; under `CCc1c(C(=O)O)nnn1-c1cc(OC)cc(OC)c1`, 730 s.
For `CC(C(=O)N1CCCC1)C1CCN(C(=O)c2ccc3nc(-c4ccccc4)oc3c2)CC1` (centres undefined), the RP-LC retention time was 818 s.
For the compound `CC(=O)N1CCc2ccccc2C1C(=O)NCc1ccccc1C` (centres undefined), the RP-LC retention time came to 788 s.
On to `Cc1cc(C)n(-c2ccnc(N3CCC(C(=O)NCc4ccccn4)CC3)n2)n1`, for which the RP-LC retention time is 610 s.
In turn, `COc1cc(C(=O)NCCc2c[nH]c3ccc(C)cc23)cc(OC)c1OC` displayed an RP-LC retention time of 814 s.
Compound `CCc1noc(C2(NC(=O)c3ccc(C(C)(C)C)cc3)CCCCC2)n1` gave an RP-LC retention time of 1190 s.
`O=C(CN1C(=O)COc2ccc(C(=O)N3CCCC3)cc21)N1CCN(c2ccccc2)CC1` returned an RP-LC retention time of 718 s.
The compound `CC(=O)Nc1ccc(CC(=O)N2CCCC(c3nc(-c4ccc(NC(C)=O)cc4)no3)C2)cc1` (centres undefined) yielded an RP-LC retention time of 675 s.
`O=C(C1CCN(c2nnc(-c3ccccc3)o2)CC1)N1CCCCC1` had an RP-LC retention time of 760 s.
Compound `O=C(Cc1cccs1)NCCS(=O)(=O)N1CCN(c2ncccn2)CC1` had an RP-LC retention time of 653 s.
`Cc1ccc(C)c(-c2cc3c(=O)n(Cc4nc(-c5ccccc5)no4)ncn3n2)c1`: the RP-LC retention time was 1200 s.
To `Cc1ccc(CNC(=O)c2csc(-c3ccc(N4CCCC4)nc3)n2)o1` belongs 679 s.
To `CCOc1ccccc1-c1noc(-c2nnn3c2COC(c2ccc(C)cc2C)C3)n1` (centres undefined) belongs 1290 s.
Compound `COc1ccc(-c2coc3cc(OCc4ccc([N+](=O)[O-])cc4)ccc3c2=O)cc1OC` showed an RP-LC retention time of 991 s.
In turn, `COc1ccc(-c2nnc(-c3ccc(C)c(S(=O)(=O)NC(C)(C)CO)c3)o2)cc1OC` showed an RP-LC retention time of 749 s.
Under `CCN(CC)CCCNC(=O)c1cc2n(n1)CC(C)(C(=O)NCc1ccccc1)N(C)C2=O` (centres undefined) stands 581 s.
Regarding `CCc1onc(C)c1C1CCCN1C(=O)Nc1ccc(C)c(F)c1` (centres undefined), the RP-LC retention time was found to be 879 s.
Consider `COC(=O)c1ccc(NC(=O)CN2CCc3[nH]c4c(F)c(Cl)ccc4c(=O)c3C2)cc1`, for which the RP-LC retention time worked out at 630 s.
Take `CCN(CC)CCNC(=O)c1cc2n(n1)CC(C)(C(=O)NCc1ccc(F)cc1)N(C)C2=O` (centres undefined): the RP-LC retention time was found to be 589 s.
In the case of `Cc1nc2cc(-c3noc(-c4ccc(F)c(Cl)c4)n3)ccc2o1`, the RP-LC retention time was found to be 1270 s.
With `O=c1n(Cc2ccc(Cl)cc2)nc2ccc(S(=O)(=O)N3CCOCC3)cn12`, the RP-LC retention time amounted to 676 s.
Compound `Cc1[nH]nc(-c2c(C)sc(C)c2S(=O)(=O)NCC(C)c2ccccc2)c1C` (centres undefined) registered an RP-LC retention time of 1090 s.
`Cc1ccc(NC(=O)C2CCN(S(=O)(=O)c3cn(C)cn3)CC2)c(C)c1` had an RP-LC retention time of 706 s.
To `COc1ccc(OC)c(NC(=O)N2CCN(Cc3cn(C)c4ccccc34)CC2)c1` belongs 664 s; to `CCCN1CCN(c2ncc(C(=O)Nc3ccccc3)c(N)n2)CC1`, 610 s.
Regarding `CS(=O)(=O)N1CC[C@H]2CN(C(=O)c3ccc4ncccc4c3)C[C@@]2(CF)C1`, the RP-LC retention time worked out at 607 s.
In the case of `Cc1cccc(NC(=O)C2(C)CCCCC(=O)N2)c1` (centres undefined), the RP-LC retention time worked out at 695 s.
To `CC1CCN(C2=NCCN2C(=O)c2c(F)cccc2F)CC1` belongs 660 s; to `CN1C(=O)CCC2(CNC(=O)c3ccnn3C)CCC=C12` (centres undefined), 639 s.
To `CCn1nc(C)c(-c2cc(C(=O)NCC3Cn4cccc4C(=O)N3C)no2)c1C` (centres undefined) belongs 679 s; to `CCN1CCN(c2cc(-c3nc(-c4cccc(F)c4)no3)c3ccccc3n2)CC1`, 821 s.
`CN(C)C(=O)c1cc(=O)[nH]c2ccc(F)cc12` returned an RP-LC retention time of 577 s.
Under `O=C(NC1CCCc2ccccc21)C1CCCN(c2ccnc(-c3ccc(F)cc3)n2)C1` (centres undefined) stands 734 s.
As to `COc1cccc(CNC(=O)c2ccc3c(c2)nc2n3CCN(Cc3ccccc3)C2=O)c1`, the RP-LC retention time was determined as 777 s.
Consider `Cc1c(-c2noc(-c3ccccc3F)n2)nnn1Cc1ccccc1`, for which the RP-LC retention time stood at 1030 s.
`O=C(NCC(O)C1CCCCC1)C(c1ccccc1)c1ccccc1` (centres undefined) showed an RP-LC retention time of 907 s.
`CCc1noc([C@@H]2CC(F)(F)CN2C(=O)c2cocn2)n1` came in with an RP-LC retention time of 733 s.
`COc1ccccc1-c1nnc(NC(=O)COc2ccccc2)o1`: the RP-LC retention time came to 707 s.
Under `O=C(NCc1ccccc1OC(F)(F)F)c1ccc(N2CCOCC2)nn1` stands 777 s; under `Oc1cccc(-c2nc3ncccn3c2Nc2ccc(Cl)cc2)c1`, 710 s; under `CC(C)n1c(=O)sc2cc(S(=O)(=O)N3CCC(C(=O)NC4CCCC4)CC3)ccc21`, 896 s.
The compound `Cc1cccc(NC(=O)N2CCC(n3cnc4c(C)cccc4c3=O)CC2)c1` gave an RP-LC retention time of 836 s.
Turning to `O=C(CC1CCN(C(=O)c2ccc3nc(-c4ccccc4)oc3c2)CC1)NCC1CCCO1` (centres undefined), the RP-LC retention time is 722 s.
Under `CC1=C(c2ccccc2)S(=O)(=O)N=C1N1CCCN(C(=O)C2CCCC2)CC1` stands 814 s; under `Cc1cc(-c2nnc(C3CCC3)o2)c(C)n1CC(=O)NCc1ccc(F)cc1Cl`, 899 s.
Regarding `COc1cccc(-c2noc(Cn3nc(-c4ccc5c(c4)OCO5)ccc3=O)n2)c1`, the RP-LC retention time was found to be 957 s.
Under `Cc1cc2c(c(=O)n(-c3ccccc3)c(=O)n2CC(=O)Nc2cccc(Br)c2)n1C` stands 836 s; under `O=C(Cc1csc2nc(-c3cccc(Br)c3)cn12)NC1CCCC1`, 888 s; under `CNC(=O)c1[nH]c2ccc(C)cc2c1N1CCCC1=O`, 675 s.
`Cc1ccc(Cl)cc1N1CCN(c2ncc(S(=O)(=O)c3ccccc3)c(N)n2)CC1` registered an RP-LC retention time of 1250 s.
To `COc1cccc(N2CCN(c3nc(C(=O)NCCN4CCOCC4)cs3)CC2)c1` belongs 667 s; to `Cc1ccc(-n2c(N3CCC(C(=O)NC(C)c4ccc(F)cc4)CC3)nc3ccsc3c2=O)cc1` (centres undefined), 1010 s.
`Cc1ccnc(NS(=O)(=O)c2ccc(NC(=O)C3COc4ccccc4O3)cc2)n1` (centres undefined) had an RP-LC retention time of 711 s.
As to `Fc1ccccc1-c1noc(-c2nc(C3CC3)no2)n1`, the RP-LC retention time is 1050 s.
As for `O=C(NCc1cccs1)N1CCN(c2nc3c(F)cc(F)cc3s2)CC1`, the RP-LC retention time is 849 s.
Consider `CCc1cccc(NS(=O)(=O)c2cc3n(c2)CCN(C(C)C)C3=O)c1`, for which the RP-LC retention time was determined as 816 s.
With `Cc1c(Cl)cccc1Nc1c(-c2ccccc2)nc2cnccn12`, the RP-LC retention time stood at 997 s.
As for `Cc1cccc(CNC(=O)C2=C3CCCN3c3ccc(F)cc3S2(=O)=O)c1`, the RP-LC retention time is 936 s.
`O=C(CCc1ccccc1)NCC(=O)Nc1nc2ccccc2[nH]1`: the RP-LC retention time is 640 s.
The compound `COc1ccc(OC)c(NC(=O)N2CCCC(C)(C(=O)NCc3ccccc3C)C2)c1` (centres undefined) returned an RP-LC retention time of 912 s.
On to `O=C(Cn1nc(N2CCOCC2)c2ccccc2c1=O)Nc1ccccc1`, for which the RP-LC retention time was determined as 742 s.
In the case of `CCc1ccc(-n2nnc(C(=O)N3CCC4(CC3)OCCO4)c2-c2ccncc2)cc1`, the RP-LC retention time is 766 s.
`COc1ccccc1-c1noc(Cn2c(=O)n(-c3ccccc3F)c(=O)c3sccc32)n1` came in with an RP-LC retention time of 880 s.
To `COc1ccc(NC(=O)c2cn(-c3cc(N4CCC(C)CC4)ncn3)cn2)c(OC)c1` belongs 1150 s.
In turn, `CCCc1ccc(S(=O)(=O)N2CCc3c(c(-c4nnc(-c5ccccc5)o4)nn3C)C2)cc1` displayed an RP-LC retention time of 1090 s.
Compound `Cn1cc(C(=O)C(=O)NC2CCCCC2)c2ccccc21` returned an RP-LC retention time of 1070 s.
